Assay results taken from patent publication US12065648B2, “Methods and compositions for inhibiting detoxification response” (priority 2015, dated 2024).

What was measured:
[1] = tested on: haf-7 transcriptional GFP fusion gene; experiment: Transcriptional GFP fusion gene induction: haf-7; format: in vivo, C. elegans; settings: n = 20
Protocol: (§1) G418 (GoldBio) or hygromycin (GoldBio) was diluted in M9 to the desired concentration and added onto preseeded OP50 E. coli bacteria containing NGM plates. The plates were dried uncovered in the hood for at least 1 hour before seeding the worms. For the drug experiments, synchronized L1-stage animals were dropped onto the drug containing plates and scored later. For drug resistance assays synchronized L1 larval stage animals of the appropriate genotype were fed with either control RNAi or with RNAi clones targeting bile acid biosynthetic pathways until they reach day two of adulthood. Subsequently, the RNAi-treated animals were egg-prepped to obtain synchronized L1 larvae. ˜100 L1 larvae were added to the plates containing G418. 100 nM of Δ^4-Dafachronic Acid or (25S)-Δ^7-Dafachronic Acid from Cayman Chemical were used.
(§2) Nematodes were mounted onto agar pads and images were taken using a Zeiss AXIO Imager Z1 microscope fitted with a Zeiss AxioCam HRm camera and Axiovision 4.6 (Zeiss) software. Fluorescent images were converted to 16-bit images, thresholded and quantified using ImageJ. Student's t test was used determine statistical significance. […]

[2] = tested on: ugt-61 transcriptional GFP fusion gene; experiment: Transcriptional GFP fusion gene induction: ugt-61; format: in vivo, C. elegans; settings: n = 20
Protocol: as §1, §2

[3] = tested on: pgp-3 transcriptional GFP fusion gene; experiment: Transcriptional GFP fusion gene induction: pgp-3; format: in vivo, C. elegans; settings: n = 20
Protocol: as §1, §2

[4] = tested on: mrp-2 transcriptional GFP fusion gene; experiment: Transcriptional GFP fusion gene induction: mrp-2; format: in vivo, C. elegans; settings: n = 20
Protocol: as §1, §2

[5] = tested on: abch-1 transcriptional GFP fusion gene; experiment: Transcriptional GFP fusion gene induction: abch-1; format: in vivo, C. elegans; settings: n = 20
Protocol: as §1, §2

[6] = tested on: pmp-4 transcriptional GFP fusion gene; experiment: Transcriptional GFP fusion gene induction: pmp-4; format: in vivo, C. elegans; settings: n = 20
[7] = tested on: ugt-58 transcriptional GFP fusion gene; experiment: Transcriptional GFP fusion gene induction: ugt-58; format: in vivo, C. elegans; settings: n = 20
Protocol: as §1, §2

[8] = tested on: dhs-9 transcriptional GFP fusion gene; experiment: Transcriptional GFP fusion gene induction: dhs-9; format: in vivo, C. elegans; settings: n = 20
Protocol: as §1, §2

[9] = tested on: cyp-13a7 transcriptional GFP fusion gene; format: in vivo, C. elegans; settings: n = 20
Protocol: as §1
(§3) Nematodes were mounted onto agar pads and images were taken using a Zeiss AXIO Imager Z1 microscope fitted with a Zeiss AxioCam HRm camera and Axiovision 4.6 (Zeiss) software. Fluorescent images were converted to 16-bit images, thresholded and quantified using ImageJ. Student's t test was used determine statistical significance.
(§4) Inactivation of C. elegans translation components by feeding the animals E. coli expressing specific dsRNAs targeting translation factor mRNAs induces the expression of xenobiotic detoxification genes, bacterial pathogen response genes, and aversion behavior2-4 (FIG. 1A-C; Table 1, 2 and 3). Toxins, such as the eukaryotic translation inhibitors G418 produced by the bacteria Micromonospora rhodorangea5 or hygromycin, produced by the soil bacteria Streptomyces hygroscopicus6 also induce these responses.
(§5) Detoxification responses in animals include, cytochrome P450's (CYPs), UDP-glucuronosyltransferases (UGTs), glutathione S-transferases (GSTs), and p-glycoprotein transporters (PGPs) (FIGS. 1A & 1C; FIG. 6 A-B; Table 1, 2 and 3). We chose a pgp-5::gfp fusion gene for assays of xenobiotic detoxification induction in response to G418 or hygromycin or ribosomal assaults via RNAi (FIGS. 1A & C; FIG. 6 A-B; Table 1, 2 and 3) because of the robust response of this reporter gene and validation of this gene induction from microarray gene expression analysis in response to translational inhibition by toxins or RNAi4.

[10] = tested on: cyp-14A3 transcriptional GFP fusion gene; format: in vivo, C. elegans; settings: n = 20
Protocol: as §1, §3, §4, §5

[11] = tested on: cyp-25a2 transcriptional GFP fusion gene; format: in vivo, C. elegans; settings: n = 20
Protocol: as §1, §3, §4, §5

[12] = tested on: cyp-31a3 transcriptional GFP fusion gene; format: in vivo, C. elegans; settings: n = 20
Protocol: as §1, §3, §4, §5

[13] = tested on: cyp-34A9 transcriptional GFP fusion gene; format: in vivo, C. elegans; settings: n = 20
Protocol: as §1, §3, §4, §5

[14] = tested on: cyp-35B1 transcriptional GFP fusion gene; format: in vivo, C. elegans; settings: n = 20
Protocol: as §1, §3, §4, §5

[15] = tested on: cyp-37A1 transcriptional GFP fusion gene; format: in vivo, C. elegans; settings: n = 20
Protocol: as §1, §3, §4, §5

[16] = tested on: dhs-19 transcriptional GFP fusion gene; experiment: Transcriptional GFP fusion gene induction: dhs-19; format: in vivo, C. elegans; settings: n = 20
Protocol: as §1, §2

[17] = tested on: ugt-8 transcriptional GFP fusion gene; experiment: Transcriptional GFP fusion gene induction: ugt-8; format: in vivo, C. elegans; settings: n = 20
Protocol: as §1, §2

[18] = tested on: pgp-4 transcriptional GFP fusion gene; experiment: Transcriptional GFP fusion gene induction: pgp-4; format: in vivo, C. elegans; settings: n = 20
[19] = tested on: pgp-6 transcriptional GFP fusion gene; experiment: Transcriptional GFP fusion gene induction: pgp-6; format: in vivo, C. elegans; settings: n = 20
Protocol: as §1, §2

[20] = tested on: ugt-22 transcriptional GFP fusion gene; experiment: Transcriptional GFP fusion gene induction: ugt-22; format: in vivo, C. elegans; settings: n = 20
Protocol: as §1, §2

[21] = tested on: pgp-9 transcriptional GFP fusion gene; experiment: Transcriptional GFP fusion gene induction: pgp-9; format: in vivo, C. elegans; settings: n = 20
Protocol: as §1, §2

[22] = tested on: pgp-5::gfp; experiment: pgp-5::gfp induction in animals without germline translation mutation (toxin, RNAi, bile acids, lipid extracts); format: in vivo, C. elegans; settings: pgp-5 transcriptional GFP fusion gene; n = 20
Protocol: as §1
Nematodes were mounted onto agar pads and images were taken using a Zeiss AXIO Imager Z1 microscope fitted with a Zeiss AxioCam HRm camera and Axiovision 4.6 (Zeiss) software. Fluorescent images were converted to 16-bit images, thresholded and quantified using ImageJ. […]
RNAi bacteria expressing the dsRNA corresponding to each worm gene were grown in LB media with 25 μg/ml carbenicillin overnight and seeded onto RNAi agar plates containing 1 mM IPTG. […] In the primary screen, the plates were screened visually for changes in GFP fluorescence and worm developmental defects. […]

[23] = tested on: C. elegans; experiment: Drug resistance assay (G418 or hygromycin) after RNAi; format: in vivo; settings: control RNAi treated wildtype animals; 0.2 mg/ml G418
Protocol: as §1

[24] = tested on: pgp-5::gfp; experiment: pgp-5::gfp induction in germline translation-defective eft-3(q145);pgp-5::gfp strain (RNAi, bile acid rescue, microbes); format: in vivo, C. elegans; settings: bile acids at 100 uM
Text: Secondary screens were similarly done on the eft-3(q145):pgp-5::gfp strain.
To explore the types of lipids that the dhs-28. daf-22 pathway generates to regulate the induction of pgp-5::gfp expression in translation-defective animals, we tested whether defects in CAs-28 or daf-22-mediated lipid/bile acid biosynthesis could be rescued for pgp-5::gfp induction by addition of purified mammalian bile acids (FIG. 9B). […] These bile acids preparations are 95% pure.

[25] = tested on: C. elegans; experiment: Effect of microbes on C. elegans growth; format: in vivo; settings: C. elegans grown on the microbe
Protocol: 16S ribosomal sequence was amplified using specific primers and sequenced to identify the microbes. BHI media as well as plates was used for culturing and testing the effect of Enterococcus faecalis and E. faecium on worms. For Saccharomyces boulardi, YPD media was used for growing the yeast and a concentrated culture was added to SK media. For Lactobacillus spp, Lactobacilli broth was used for growing and then a concentrated culture was added to SK media. SK media was used for all the other microbes.
Many of the bacterial strains allowed normal growth of C. elegans, but some caused developmental arrest, perhaps due to toxins or virulence factors that disrupt essential C. elegans processes.

## CN[C@@H]1[C@@H](O)[C@@H](O[C@@H]2[C@@H](O)[C@H](O[C@H]3O[C@H]([C@@H](C)O)[C@@H](O)[C@H](O)[C@H]3N)[C@@H](N)C[C@H]2N)OC[C@]1(C)O [G418]
[1]
  % Animals with gfp induction: 0 (n = 20) %
[2]
  % Animals with gfp induction: 0 (n = 20) %
[3]
  % Animals with gfp induction: 0 (n = 20) %
[4]
  % Animals with gfp induction: 80 (n = 20) %
[5]
  % Animals with gfp induction: 0 (n = 20) %
[6]
  % Animals with gfp induction: 65 (n = 20) %
[7]
  % Animals with gfp induction: 0 (n = 20) %
[8]
  % Animals with gfp induction: 0 (n = 20) %
[9]
  % Animals with gfp induction: 0 (n = 20) %
[10]
  % Animals with gfp induction: 0 (n = 20) %
[11]
  % Animals with gfp induction: 0 (n = 20) %
[12]
  % Animals with gfp induction: 80 (n = 20) %
[13]
  % Animals with gfp induction: 0 (n = 20) %
[14]
  % Animals with gfp induction: 0 (n = 20) %
[15]
  % Animals with gfp induction: 0 (n = 20) %
[16]
  % Animals with gfp induction: 0 (n = 20) %
[17]
  % Animals with gfp induction: 0 (n = 20) %
[18]
  % Animals with gfp induction: 0 (n = 20) %
[19]
  % Animals with gfp induction: 100 (n = 20) %
[20]
  % Animals with gfp induction: 0 (n = 20) %
[21]
  % Animals with gfp induction: 100 (n = 20) %
[22]
  % Animals with gfp induction: 100 (n = 20) %
[23]
  animals that grew to adulthood: > 40%

## C[C@H](CCC(=O)O)[C@H]1CC[C@H]2[C@@H]3[C@H](O)C[C@@H]4C[C@H](O)CC[C@]4(C)[C@H]3CC[C@]12C [chenodeoxycholic acid]
[24]
  rescue of the defect in pgp-5::gfp induction caused by daf-22 or dhs-28 gene inactivations: rescued the defect in induction of pgp-5::gfp

## CC(CCC(=O)NCC(=O)O)C1CCC2C3C(O)CC4CC(O)CCC4(C)C3CCC12C (stereo not drawn) [glycochenodeoxycholic acid]
[24]
  rescue of the defect in pgp-5::gfp induction caused by daf-22 or dhs-28 gene inactivations: rescued the defect in induction of pgp-5::gfp

## Lactobacillus plantarum
[25]
  % Animals that reach adulthood: 0%
  developmental outcome on the microbe (arrest stage, slow growth, normal): slow growth
